Measured values from patent US20120277165A1, “METHODS OF MODULATING FUCOSYLATION OF GLYCOPROTEINS” (priority 2009, published 2012).

What was measured:
[1] = system: Lec 13.6 A cells (CHO cells deficient in GDP-mannose 4,6, dehydratase) expressing CTLA4Ig; assay: GDP-fucose levels in CHO cells (nucleotide sugar extraction, RP chromatography, UV); format: cell-based, Chinese hamster; settings: relative to wild-type CHO = 100
Protocol: (§1) The levels of GDP-fucose levels and the degree of protein fucosylation on glycoproteins were analyzed for three different CHO cell lines expressing a representative secreted protein product (CTLA4Ig): CHO cells that are deficient in the enzyme GDP-mannose 4,6, dehydratase (Lec 13.6 A); CHO cells that have lowered levels of GDP-fucose (Lec 2); and wild-type CHO cells. […] Cells were harvested, and snap frozen, while culture supernatant was harvested and CTLA4Ig harvested by protein A purification for subsequent analysis. Cells were then subjected to nucleotide sugar extraction using standard methods. In short with chloroform:methanol:water (2:4:1), the pellets discarded and the resulting extraction dried down. The dried material was subsequently resuspended in 500 ul of 10% butanol in water and then extracted with 1 ml of 90% butanol in water. […] For quantification, sugar-nucletides were resolved with RP chromatography.
(§2) Protein products were isolated from culture supernatant by protein A affinity, and subjected to PNGase F treatment to remove glycans. The resulting glycans were isolated by PGC chromatography and subsequently analyzed by MALDI mass spectrometry. The % fucosylation was determined by determining the ratio of the glycans with or without core fucosylation. GDP-fucose levels are indicated in peak area as detected by UV.

[2] = system: Lec 13.6 A cells (CHO cells deficient in GDP-mannose 4,6, dehydratase) expressing CTLA4Ig; assay: Degree of core fucosylation of glycans on secreted CTLA4Ig (PNGase F, MALDI mass spectrometry); format: cell-based, Chinese hamster; settings: CTLA4Ig from Lec 13.6A cells
Protocol: as §1, §2

[3] = 0.01 mM exogenous fucose in culture media
[4] = 1 mM exogenous fucose in culture media

C[C@H](O)[C@@H](O)[C@@H](O)[C@H](O)C=O [fucose]
% of Parental GDP-fucose [1, 3]: 62.5%
% of Parental GDP-fucose [1, 4]: 270%
% Fucosylated Glycans [2, 3]: 45%
% Fucosylated Glycans [2, 4]: 100%
